Where “and” joins values, the source holds several entries; their conditions need not be identical. Equal values may be shown once.
How the values were obtained:
Human P2Y1-R [1] = biological target: T1, Human P2Y1-R (Homo sapiens, UniProt P47900); test: β-arrestin 2 recruitment BRET1 assay (β-arrestin 2-RLuc / P2Y1-R-Venus) in HEK293T cells; assay type: cell-based; settings: for MRS2179-modulated BRET: Figure 3g; for MRS2179-modulated BRET / b-arrestin 2 signaling, Ligand-modulated BRET (% of maximum MRS2179 mean value) / Ligand-modulated BRET: individual replicates; for b-arrestin 2 signaling, Ligand-modulated BRET (% of maximum MRS2179 mean value): Figure 4b; for Ligand-modulated BRET: Figure 3h, ligand 10 µM
T1 construct: expressed in transfected cells; host or cells: HEK293T/17
T1 sequence (P47900 whole entry): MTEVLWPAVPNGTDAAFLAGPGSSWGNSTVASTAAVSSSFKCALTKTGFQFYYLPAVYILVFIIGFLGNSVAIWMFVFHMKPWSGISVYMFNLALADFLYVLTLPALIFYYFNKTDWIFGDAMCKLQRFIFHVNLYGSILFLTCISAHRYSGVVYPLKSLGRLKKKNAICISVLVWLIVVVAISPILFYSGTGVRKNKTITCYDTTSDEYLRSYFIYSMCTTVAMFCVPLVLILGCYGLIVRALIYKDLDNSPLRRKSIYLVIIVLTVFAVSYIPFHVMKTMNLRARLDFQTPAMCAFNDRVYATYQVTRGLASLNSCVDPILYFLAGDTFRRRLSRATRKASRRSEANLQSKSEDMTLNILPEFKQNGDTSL
From the text: We assessed β-arrestin 2 recruitment to the receptor using BRET^1 assay. The assay measures the interaction between β-arrestin 2 fused to the Renilla reniformis luciferase (RLuc) energy donor and the receptor fused to fluorescent Venus energy acceptor (Fig. 3a). The recruitment of cytosolic β-arrestin 2 to the receptor at the plasma membrane in the presence of an agonist will promote a significant increase of the BRET signal compared to the basal state, reflecting the close proximity between the β-arrestin 2 energy donor and the receptor energy acceptor [22].
Human P2Y1-R (NCBI Reference Sequence: NM_002563.2) and P2Y12-R (NCBI Reference Sequence: NM_022788.3) were fused to double Myc epitope and rat AT1-R (NCBI Reference Sequence: NM_030985.4) to HA tag in N-terminus extracellular region. Alternatively, receptors were also fused to Venus tag in C-terminus intracellular region. Plasmids encoding Gαq-RLuc8, GFP2-Gγ2 and untagged Gβ1 were previously described. ADP was purchased from Sigma-Aldrich/Merck (Darmstadt, Germany). […] The Gq inhibitor (FR900359) was kindly supplied by Evi Kostenis (University of Bonn. Germany).
G protein activation and β-arrestin 2 recruitment were performed as previously described. Briefly, vectors encoding receptors, Gαq-RLuc8, GFP2-Gγ2, Gβ1, or β-arrestin 2 were transiently cotransfected into HEK293T/17 cells as indicated in the figure legends. Forty-eight hours after transfection, cells were washed and resuspended in PBS containing 0.1% (w/v) glucose at room temperature and then distributed (80 μg proteins/well) in a 96-well microplate (PerkinElmer). For G protein activation experiments (BRET^2), cells were incubated in the absence (basal BRET signal) or in the presence of ligand for 1 minute. BRET signal between RLuc8 and GFP2 was measured after addition of the luciferase substrate coelenterazine 400a (5 μM). For β-arrestin 2 recruitment (BRET^1), cells were stimulated with ligands for 5 or 15 min. BRET signal was recorded after incubation with coelenterazine h (5 μM) for 8 min. For kinetics studies, BRET signal between RLuc and Venus was recorded at 20-s intervals at basal state for the 2 first minutes and then for 5 min after ligand injection. For saturation curves (BRET^1), the expression level of Venus- or RLuc-tagged protein was determined by direct measurement of total fluorescence and luminescence respectively. Total fluorescence was first measured with an excitation filter at 485 nm and an emission filter at 520 nm. Then, the same sample was incubated for 8 minutes with 5 μM coelenterazine h and the total luminescence was measured. BRET^2 and BRET^1 readings were collected using a modified Infinite F500 (Tecan Group Ltd). The BRET^2 signal was calculated by the ratio of emission of GFP2 (510–540 nm) to RLuc8 (370–450 nm) and the BRET^1 signal by the ratio of emission of Venus (520–570 nm) to RLuc (370–480 nm). Sometimes, results are expressed as the Net BRET computed by deducting the BRET background signal (obtained in the presence of the energy donor alone) from the BRET signal (acquired from cells expressing both the energy donor and acceptor).

[2] = test system: washed murine platelets (P2Y1-R/Gαq signaling); test: IP1 accumulation assay (HTRF) in washed murine platelets; assay type: cell-based, mouse; settings: MRS2179 10 μM, 2 h
Procedure: As performed in HEK293T cells, we thus quantified intracellular IP1 levels to monitor Gαq protein-dependent signaling pathways.
Platelet-rich plasma (PRP) was obtained by mixing blood with 1 volume of modified Hepes Tyrode’s buffer (137 mM NaCl, 2 mM KCl, 12 mM NaHCO3, 0.3 mM NaH2PO4, 1 mM MgCl2, 2 mM CaCl2, 5.5 mM glucose, 5 mM HEPES, and 0.35% (w/v) BSA, pH 6.7) followed by a centrifugation at 150 g for 2 min at 37 °C. Then, platelets were pelleted by centrifugation at 1000 g for 4 min, resuspended in modified Hepes Tyrode’s buffer (pH 7.4), adjusted to 3.10^8 platelets/mL in the presence of 0.02 U/mL of apyrase and 10 μM indomethacin and rested for 45 minutes at 37°C before platelet stimulation. PGI2 (0.5 μM) was added before centrifugation steps to avoid platelet activation.
(§1) Quantification of intracellular IP1 was performed using the HTRF (Homogeneous Time Resolved Fluorescence) IP1 competitive immunoassay (IP-One Tb kit. Cisbio. France) according to the manufacturer’s instructions. Briefly, 20,000 HEK293T/17 cells or 3.10^6 platelets were distributed in a 384-well white microplate (Greiner) and incubated with the indicated molecules for 30 min or 2 h at 37 °C in the presence of 50 mM of LiCl to prevent IP1 degradation. After addition of d2-labeled IP1 (acceptor) and anti-IP1-Cryptate (donor) for 1 h, the specific FRET signals were calculated by the fluorescence ratio of the acceptor and donor emission signal (665/620 nm) collected using a modified Infinite F500 (Tecan Group Ltd). Conversion of the HTRF ratio of each sample into IP1 concentrations was performed on the basis of a standard curve to determine the linear dynamic range of the assay.

HEK293T cells (pcDNA3.1) = test: IP1 accumulation assay (HTRF) in control HEK293T cells (pcDNA3.1); assay type: cell-based, Human; settings: pcDNA3.1, MRS2179 10 μM, 2 h
From the text: Since Gαq protein activation is known to induce PLC activation leading to IP3 and subsequent cytosolic calcium release, we analyzed the constitutive Gαq-dependent P2Y1-R signaling by quantifying intracellular inositol monophosphate (IP1) using a monoclonal antibody-based competitive ELISA. IP1 is a downstream metabolite of IP3 that accumulates in cells following Gαq protein-coupled receptor activation, making it an ideal readout for Gαq protein-dependent signaling pathways.
as §1

Human P2Y12-R = biological target: T2, Human P2Y12-R (Homo sapiens, UniProt Q9H244); test: IP1 accumulation assay (HTRF) in HEK293T cells expressing P2Y12-R; assay type: cell-based; settings: MRS2179 10 μM, 2 h
T2 construct: expressed in transfected cells; host or cells: HEK293T/17
T2 sequence (Q9H244 whole entry): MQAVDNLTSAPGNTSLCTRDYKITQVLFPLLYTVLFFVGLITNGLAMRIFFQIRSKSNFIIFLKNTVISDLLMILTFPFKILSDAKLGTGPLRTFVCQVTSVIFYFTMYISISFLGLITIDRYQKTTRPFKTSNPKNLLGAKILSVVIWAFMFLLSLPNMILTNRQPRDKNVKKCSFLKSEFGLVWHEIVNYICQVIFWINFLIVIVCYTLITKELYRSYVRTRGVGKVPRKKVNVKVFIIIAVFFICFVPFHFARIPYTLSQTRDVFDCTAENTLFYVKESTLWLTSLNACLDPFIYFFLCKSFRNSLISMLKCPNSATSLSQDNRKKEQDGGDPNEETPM

Human P2Y1-R [3] = biological target: T1, Human P2Y1-R; test: IP1 accumulation assay (HTRF) in HEK293T cells expressing P2Y1-R; assay type: cell-based; settings: MRS2179 10 μM, 2 h
[4] = Fig. 3g, inverse agonism on β-arrestin 2 recruitment, 15 min
[5] = β-Arrestin 2 signaling, Fig. 4b, 15 min

## CNc1ncnc2c1ncn2[C@H]1C[C@H](OP(=O)(O)O)[C@@H](COP(=O)(O)O)O1 [MRS2179]
Human P2Y1-R [1]; 10 μM, 15 min, decreasing amounts of P2Y1-R-Venus vector, result in words
  Effect on β-arrestin 2 recruitment at decreased (low) P2Y1-R expression: loss of the inverse agonist efficacy
Human P2Y1-R [1]; Fig. 3g, 15 min stimulation, difference in BRET signal with and without ligand
  Maximal efficacy (Emax), MRS2179-modulated BRET: -0.1192 ± 0.007029
Human P2Y1-R [1]; [4]
  EC50: 4.56 µM
  pEC50 ± s.e.m.: 5.341 ± 0.1565
Human P2Y1-R [1]; [MRS2179] 1.00E-04 M
  MRS2179-modulated BRET: -0.1343 and -0.1251 and -0.1075 and -0.1104 and -0.1004 and -0.1271
Human P2Y1-R [1]; [MRS2179] 1.00E-05 M
  MRS2179-modulated BRET: -0.08399 and -0.08788 and -0.08039 and -0.09033 and -0.07645 and -0.09139
Human P2Y1-R [1]; [MRS2179] 1.00E-06 M
  MRS2179-modulated BRET: -0.02625 and -0.04054 and -0.04836 and -0.05476 and -0.05132 and -0.07031
Human P2Y1-R [1]; [MRS2179] 1.00E-07 M
  MRS2179-modulated BRET: -0.0171 and -0.02456 and -0.02615 and -0.04428 and -0.0209 and -0.07223
Human P2Y1-R [1]; [MRS2179] 1.00E-08 M
  MRS2179-modulated BRET: -0.003323 and -0.0198 and -0.01307 and -0.01788 and -0.04276 and -0.0269
Human P2Y1-R [1]; [MRS2179] 1.00E-09 M
  MRS2179-modulated BRET: -0.00593 and -0.03381 and -0.01728 and -0.01928 and -0.03943 and -0.05623
Human P2Y1-R [1]; [MRS2179] 1.00E-10 M
  MRS2179-modulated BRET: -0.003915 and -0.01627 and -0.01217 and -0.01765 and -0.03594 and -0.03393
Human P2Y1-R [1]; [Ligand] 1.00E-04 M
  b-arrestin 2 signaling, Ligand-modulated BRET (% of maximum MRS2179 mean value): -103.593 % of maximum MRS2179 mean value and -98.5011 % of maximum MRS2179 mean value and -96.2574 % of maximum MRS2179 mean value and -88.0215 % of maximum MRS2179 mean value and -113.627 % of maximum MRS2179 mean value
Human P2Y1-R [1]; [Ligand] 1.00E-05 M
  b-arrestin 2 signaling, Ligand-modulated BRET (% of maximum MRS2179 mean value): -60.9526 % of maximum MRS2179 mean value and -65.9951 % of maximum MRS2179 mean value and -71.6134 % of maximum MRS2179 mean value and -73.8216 % of maximum MRS2179 mean value and -88.9449 % of maximum MRS2179 mean value
Human P2Y1-R [1]; [Ligand] 1.00E-06 M
  b-arrestin 2 signaling, Ligand-modulated BRET (% of maximum MRS2179 mean value): -20.802 % of maximum MRS2179 mean value and -20.2455 % of maximum MRS2179 mean value and -36.1127 % of maximum MRS2179 mean value and -36.3804 % of maximum MRS2179 mean value and -49.6506 % of maximum MRS2179 mean value
Human P2Y1-R [1]; [Ligand] 1.00E-07 M
  b-arrestin 2 signaling, Ligand-modulated BRET (% of maximum MRS2179 mean value): -19.7613 % of maximum MRS2179 mean value and -27.0869 % of maximum MRS2179 mean value and -32.4514 % of maximum MRS2179 mean value and -43.962 % of maximum MRS2179 mean value and -16.0925 % of maximum MRS2179 mean value
Human P2Y1-R [1]; [Ligand] 1.00E-08 M
  b-arrestin 2 signaling, Ligand-modulated BRET (% of maximum MRS2179 mean value): -3.302 % of maximum MRS2179 mean value and 12.7459 % of maximum MRS2179 mean value and -20.5003 % of maximum MRS2179 mean value and -35.6867 % of maximum MRS2179 mean value and -12.0698 % of maximum MRS2179 mean value
Human P2Y1-R [1]; [Ligand] 1.00E-09 M
  b-arrestin 2 signaling, Ligand-modulated BRET (% of maximum MRS2179 mean value): -20.2543 % of maximum MRS2179 mean value and -2.0253 % of maximum MRS2179 mean value and -34.1131 % of maximum MRS2179 mean value and -19.5954 % of maximum MRS2179 mean value and -10.4994 % of maximum MRS2179 mean value
Human P2Y1-R [1]; [Ligand] 1.00E-10 M
  b-arrestin 2 signaling, Ligand-modulated BRET (% of maximum MRS2179 mean value): -0.05365 % of maximum MRS2179 mean value and -19.3587 % of maximum MRS2179 mean value and -11.2009 % of maximum MRS2179 mean value and -4.28 % of maximum MRS2179 mean value and -21.5173 % of maximum MRS2179 mean value
Human P2Y1-R [1]; 0.1µg P2Y1-R plasmid
  Ligand-modulated BRET: -0.007776 and -0.009026 and 0.006633 and -0.01036 and -0.001083
Human P2Y1-R [1]; 1µg P2Y1-R plasmid
  Ligand-modulated BRET: -0.04239 and -0.06101 and -0.06001 and -0.03815 and -0.06277
Human P2Y1-R [1]; 4µg P2Y1-R plasmid
  Ligand-modulated BRET: -0.06559 and -0.09192 and -0.04789 and -0.08727 and -0.06156
Human P2Y1-R [1]; HEK293T cells, high P2Y1-R expression, result in words
  Effect on β-arrestin 2 recruitment / BRET signal between P2Y1-R-Venus and β-arrestin 2-RLuc: significantly decreased the BRET signal
Human P2Y1-R [1]; [5]
  EC50: 5.05 µM
  pEC50 ± s.e.m.: 5.296 ± 0.153
[2]; murine platelets, individual mice
  IP1 concentration (% matched basal values): 42.6495 % matched basal values and 45.455 % matched basal values and 38.903 % matched basal values and 51.5072 % matched basal values and 54.7749 % matched basal values and 40.3524 % matched basal values and 43.9466 % matched basal values and 64.234 % matched basal values and 61.4369 % matched basal values and 43.9485 % matched basal values and 57.6391 % matched basal values and 59.347 % matched basal values and 42.2435 % matched basal values
[2]; washed murine platelets, ADP 100 μM, Gq inhibitor 100 nM, apyrase 0.02 U/mL, result in words
  Effect on IP1 levels: decreased IP1 levels
HEK293T cells (pcDNA3.1)
  IP1 concentration: 88.9223 nM and 110.299 nM and 105.967 nM and 93.0408 nM and 138.708 nM
Human P2Y12-R
  IP1 concentration: 90.2229 nM and 91.7585 nM and 129.706 nM and 87.0301 nM and 114.326 nM
Human P2Y1-R [3]; ADP 100 μM, Gq inhibitor 100 nM, result in words
  Effect on IP1 production: strongly inhibited
Human P2Y1-R [3]; P2Y1-R
  IP1 concentration: 323.411 nM and 417.936 nM and 377.702 nM and 245.513 nM and 385.824 nM

Source: paper PMC9890698 (BMC Biology, 2023)
